# In PubChem BioAssay AID1918954 (Molecular Pharmacology Branch, DTP, NCI, 2023):
# System: MDA-MB-468 complex spheroids with HUVEC/MSC, viability
# Assay: Anticancer human tumor MDA-MB-468 cell line growth inhibition;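 also: spheroids exposed to agents for seven days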;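 as to viability, T/C: 100% = DMSO vehicle control viability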
# Settings: for IC50: curve of first compound; for viability, T/C: stronger effect = lower value
# Outline: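 Drug combinations with the LSD1 inhibitor iadademstat tested on tumor cells co-cultured as spheroids with endothelial cells and mesenchymal stem cells. Concentrations descended in half-log increments from clinical Cmax or 10 microM.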
# [1] = second compound 0.1 µM, first compound 0.00316 µM
# [2] = second compound 0.1 µM, first compound 0.01 µM
# [3] = second compound 0.1 µM, first compound 0.0316 µM
# [4] = second compound 0.1 µM, first compound 0.1 µM
# [5] = second compound 0.316 µM, first compound 0.00316 µM
# [6] = second compound 0.316 µM, first compound 0.01 µM
# [7] = second compound 0.316 µM, first compound 0.0316 µM
# [8] = second compound 0.316 µM, first compound 0.1 µM
# [9] = second compound 1 µM, first compound 0.00316 µM
# [10] = second compound 1 µM, first compound 0.01 µM
# [11] = second compound 1 µM, first compound 0.0316 µM
# [12] = second compound 1 µM, first compound 0.1 µM
# [13] = second compound 3.16 µM, first compound 0.00316 µM
# [14] = second compound 3.16 µM, first compound 0.01 µM
# [15] = second compound 3.16 µM, first compound 0.0316 µM
# [16] = second compound 3.16 µM, first compound 0.1 µM
# [17] = second compound 10 µM, first compound 0.00316 µM
# [18] = second compound 10 µM, first compound 0.01 µM
# [19] = second compound 10 µM, first compound 0.0316 µM
# [20] = second compound 10 µM, first compound 0.1 µM
structure (smiles),measurement,setting,value
CC[C@@]1(O)C(=O)OCc2c1cc1n(c2=O)Cc2cc3c(CN(C)C)c(O)ccc3nc2-1 + NC1CCC(NC2CC2c2ccccc2)CC1,IC50,second compound 0.1 µM,0.706 nM
same,IC50,second compound 0.316 µM,0.777 nM
same,IC50,second compound 1 µM,0.752 nM
same,IC50,second compound 3.16 µM,0.62 nM
same,IC50,second compound 10 µM,< 0.316 nM
same,"viability, T/C","second compound 0.1 µM, first compound 0.000316 µM",78%
same,"viability, T/C","second compound 0.1 µM, first compound 0.001 µM",37.9%
same,"viability, T/C",[1],13.1%
same,"viability, T/C",[2],7.64%
same,"viability, T/C",[3],6.65%
same,"viability, T/C",[4],4.69%
same,"viability, T/C","second compound 0.316 µM, first compound 0.000316 µM",83.4%
same,"viability, T/C","second compound 0.316 µM, first compound 0.001 µM",40.8%
same,"viability, T/C",[5],12.7%
same,"viability, T/C",[6],8.5%
same,"viability, T/C",[7],4.51%
same,"viability, T/C",[8],4.68%
same,"viability, T/C","second compound 1 µM, first compound 0.000316 µM",89.1%
same,"viability, T/C","second compound 1 µM, first compound 0.001 µM",37.3%
same,"viability, T/C",[9],12.6%
same,"viability, T/C",[10],8.19%
same,"viability, T/C",[11],6.26%
same,"viability, T/C",[12],5.19%
same,"viability, T/C","second compound 3.16 µM, first compound 0.000316 µM",64.5%
same,"viability, T/C","second compound 3.16 µM, first compound 0.001 µM",40%
same,"viability, T/C",[13],15.2%
same,"viability, T/C",[14],11.4%
same,"viability, T/C",[15],5.77%
same,"viability, T/C",[16],6.13%
same,"viability, T/C","second compound 10 µM, first compound 0.000316 µM",49.7%
same,"viability, T/C","second compound 10 µM, first compound 0.001 µM",40.8%
same,"viability, T/C",[17],14.1%
same,"viability, T/C",[18],8.51%
same,"viability, T/C",[19],6.13%
same,"viability, T/C",[20],6.82%
COc1cc(C2c3cc4c(cc3C(OC3OC5COC(C)OC5C(O)C3O)C3COC(=O)C23)OCO4)cc(OC)c1O (stereo not given) + NC1CCC(NC2CC2c2ccccc2)CC1,IC50,second compound 0.1 µM,99.2 nM
same,IC50,second compound 0.316 µM,93.1 nM
same,IC50,second compound 1 µM,89.2 nM
same,IC50,second compound 3.16 µM,76.6 nM
same,IC50,second compound 10 µM,52.6 nM
same,"viability, T/C","second compound 0.1 µM, first compound 0.00949 µM",83.6%
same,"viability, T/C","second compound 0.1 µM, first compound 0.03 µM",91.3%
same,"viability, T/C","second compound 0.1 µM, first compound 0.0949 µM",51.6%
same,"viability, T/C","second compound 0.1 µM, first compound 0.3 µM",13.8%
same,"viability, T/C","second compound 0.1 µM, first compound 0.949 µM",10.8%
same,"viability, T/C","second compound 0.1 µM, first compound 3 µM",8.8%
same,"viability, T/C","second compound 0.316 µM, first compound 0.00949 µM",82.6%
same,"viability, T/C","second compound 0.316 µM, first compound 0.03 µM",72.3%
same,"viability, T/C","second compound 0.316 µM, first compound 0.0949 µM",51.2%
same,"viability, T/C","second compound 0.316 µM, first compound 0.3 µM",14.3%
same,"viability, T/C","second compound 0.316 µM, first compound 0.949 µM",12.5%
same,"viability, T/C","second compound 0.316 µM, first compound 3 µM",9.23%
same,"viability, T/C","second compound 1 µM, first compound 0.00949 µM",90.7%
same,"viability, T/C","second compound 1 µM, first compound 0.03 µM",77.2%
same,"viability, T/C","second compound 1 µM, first compound 0.0949 µM",50.8%
same,"viability, T/C","second compound 1 µM, first compound 0.3 µM",13.8%
same,"viability, T/C","second compound 1 µM, first compound 0.949 µM",12.8%
same,"viability, T/C","second compound 1 µM, first compound 3 µM",8.57%
same,"viability, T/C","second compound 3.16 µM, first compound 0.00949 µM",67.6%
same,"viability, T/C","second compound 3.16 µM, first compound 0.03 µM",68.2%
same,"viability, T/C","second compound 3.16 µM, first compound 0.0949 µM",45.9%
same,"viability, T/C","second compound 3.16 µM, first compound 0.3 µM",15.5%
same,"viability, T/C","second compound 3.16 µM, first compound 0.949 µM",15.3%
same,"viability, T/C","second compound 3.16 µM, first compound 3 µM",8.59%
same,"viability, T/C","second compound 10 µM, first compound 0.00949 µM",55.5%
same,"viability, T/C","second compound 10 µM, first compound 0.03 µM",64.5%
same,"viability, T/C","second compound 10 µM, first compound 0.0949 µM",39.5%
same,"viability, T/C","second compound 10 µM, first compound 0.3 µM",17.1%
same,"viability, T/C","second compound 10 µM, first compound 0.949 µM",17.2%
same,"viability, T/C","second compound 10 µM, first compound 3 µM",11%
Nc1ncn(C2CC(O)C(CO)O2)c(=O)n1 (stereo not given) + NC1CCC(NC2CC2c2ccccc2)CC1,IC50,second compound 0.1 µM,14.2 nM
same,IC50,second compound 0.316 µM,9.71 nM
same,IC50,second compound 1 µM,12.3 nM
same,IC50,second compound 3.16 µM,11.6 nM
same,IC50,second compound 10 µM,5.55 nM
same,"viability, T/C",[1],88.4%
same,"viability, T/C",[2],59.4%
same,"viability, T/C",[3],28.7%
same,"viability, T/C",[4],14.2%
same,"viability, T/C","second compound 0.1 µM, first compound 0.316 µM",9.84%
same,"viability, T/C","second compound 0.1 µM, first compound 1 µM",8.86%
same,"viability, T/C",[5],84.6%
same,"viability, T/C",[6],48.6%
same,"viability, T/C",[7],28.1%
same,"viability, T/C",[8],15.6%
same,"viability, T/C","second compound 0.316 µM, first compound 0.316 µM",9.97%
same,"viability, T/C","second compound 0.316 µM, first compound 1 µM",10.2%
same,"viability, T/C",[9],83%
same,"viability, T/C",[10],54.9%
same,"viability, T/C",[11],27.5%
same,"viability, T/C",[12],15.4%
same,"viability, T/C","second compound 1 µM, first compound 0.316 µM",11.1%
same,"viability, T/C","second compound 1 µM, first compound 1 µM",10.6%
same,"viability, T/C",[13],67.7%
same,"viability, T/C",[14],53.4%
same,"viability, T/C",[15],28.2%
same,"viability, T/C",[16],15.5%
same,"viability, T/C","second compound 3.16 µM, first compound 0.316 µM",11.3%
same,"viability, T/C","second compound 3.16 µM, first compound 1 µM",9.32%
same,"viability, T/C",[17],57.4%
same,"viability, T/C",[18],42.2%
same,"viability, T/C",[19],24.4%
same,"viability, T/C",[20],14.4%
same,"viability, T/C","second compound 10 µM, first compound 0.316 µM",10.6%
same,"viability, T/C","second compound 10 µM, first compound 1 µM",10.1%
